In ChEMBL document CHEMBL1153245, “A profile of the in vitro anti-tumor activity of imidazolium-based ionic liquids” (2010):

Columns and labels:
Format in all cases: functional
[1] = test system: NCI-H23; assay: Anticancer activity against human NCI-H23 cells after 48 hrs by sulforhodamine B assay; details: for CC50: read-out: LC50 (the source's name)
[2] = test system: PC-3; assay: Anticancer activity against human PC3 cells after 48 hrs by sulforhodamine B assay; details: for CC50: read-out: LC50 (the source's name)
[3] = test system: SF-295; assay: Anticancer activity against human SF295 cells after 48 hrs by sulforhodamine B assay; details: for CC50: read-out: LC50 (the source's name)
[4] = test system: Malme-3M; assay: Anticancer activity against human MALME-3M cells after 48 hrs by sulforhodamine B assay
[5] = test system: HOP-62; assay: Anticancer activity against human HOP62 cells after 48 hrs by sulforhodamine B assay; details: for CC50: read-out: LC50 (the source's name)
[6] = test system: KM12; assay: Anticancer activity against human KM12 cells after 48 hrs by sulforhodamine B assay; details: for CC50: read-out: LC50 (the source's name)
[7] = test system: NCI-H460; assay: Anticancer activity against human NCI-H460 cells after 48 hrs by sulforhodamine B assay
[8] = test system: ACHN; assay: Anticancer activity against human ACHN cells after 48 hrs by sulforhodamine B assay
[9] = test system: IGROV-1; assay: Anticancer activity against human IGROV1 cells after 48 hrs by sulforhodamine B assay; details: IGROV-1, 48 h
[10] = test system: NCI-H226; assay: Anticancer activity against human NCI-H226 cells after 48 hrs by sulforhodamine B assay
[11] = test system: MDA-MB-468; assay: Anticancer activity against human MDA-MB-468 cells after 48 hrs by sulforhodamine B assay
[12] = test system: A498; assay: Anticancer activity against human A498 cells after 48 hrs by sulforhodamine B assay; details: for CC50: read-out: LC50 (the source's name)
[13] = test system: TK-10; assay: Anticancer activity against human TK10 cells after 48 hrs by sulforhodamine B assay
[14] = test system: A549; assay: Anticancer activity against human A549 cells after 48 hrs by sulforhodamine B assay
[15] = test system: OVCAR-5; assay: Anticancer activity against human OVCAR5 cells after 48 hrs by sulforhodamine B assay; details: for CC50: read-out: LC50 (the source's name)
[16] = test system: SK-MEL-28; assay: Anticancer activity against human SK-MEL-28 cells after 48 hrs by sulforhodamine B assay
[17] = Anticancer activity against human Hs 578T cells after 48 hrs by sulforhodamine B assay; details: for CC50: read-out: LC50 (the source's name)
[18] = test system: SF-268; assay: Anticancer activity against human SF268 cells after 48 hrs by sulforhodamine B assay; details: for CC50: read-out: LC50 (the source's name)
[19] = test system: NCI-H322M; assay: Anticancer activity against human NCI-H322M cells after 48 hrs by sulforhodamine B assay
[20] = test system: SNB-75; assay: Anticancer activity against human SNB75 cells after 48 hrs by sulforhodamine B assay; details: for CC50: read-out: LC50 (the source's name)
[21] = test system: UO-31; assay: Anticancer activity against human UO31 cells after 48 hrs by sulforhodamine B assay
[22] = test system: OVCAR-8; assay: Anticancer activity against human OVCAR8 cells after 48 hrs by sulforhodamine B assay
[23] = test system: UACC-62; assay: Anticancer activity against human UACC62 cells after 48 hrs by sulforhodamine B assay
[24] = test system: EKVX; assay: Anticancer activity against human EKVX cells after 48 hrs by sulforhodamine B assay; details: for CC50: read-out: LC50 (the source's name)
[25] = test system: CCRF-CEM; assay: Anticancer activity against human CCRF-CEM cells after 48 hrs by sulforhodamine B assay
[26] = test system: SNB-19; assay: Anticancer activity against human SNB19 cells after 48 hrs by sulforhodamine B assay; details: for CC50: read-out: LC50 (the source's name)
[27] = test system: HL-60(TB); assay: Anticancer activity against human HL-60(TB) cells after 48 hrs by sulforhodamine B assay; details: for CC50: read-out: LC50 (the source's name)
[28] = test system: U-251; assay: Anticancer activity against human U251 cells after 48 hrs by sulforhodamine B assay; details: for CC50: read-out: LC50 (the source's name)
[29] = test system: HCT-116; assay: Anticancer activity against human HCT116 cells after 48 hrs by sulforhodamine B assay
[30] = test system: DU-145; assay: Anticancer activity against human DU145 cells after 48 hrs by sulforhodamine B assay; details: for CC50: read-out: LC50 (the source's name)
[31] = test system: NCI-H522; assay: Anticancer activity against human NCI-H522 cells after 48 hrs by sulforhodamine B assay

With `CCCCCCCCCCCCCCCCCC[n+]1ccn(C)c1.[Cl-]` the GI50 ([1]; Homo sapiens, NCI-H23, 48 h) was 392 nM, the CC50 ([1]; Homo sapiens, NCI-H23, 48 h) was 7720 nM and the GI50 ([2]; Homo sapiens, PC-3, 48 h) was 212 nM. For the same compound, the CC50 ([2]; Homo sapiens, PC-3, 48 h) was 2850 nM, the GI50 ([3]; Homo sapiens, SF-295, 48 h) was 332 nM and the CC50 ([3]; Homo sapiens, SF-295, 48 h) was 5590 nM. For the same compound, the GI50 [4] was 368 nM, the LC50 (concentration killing 50% of cells) ([4]; Homo sapiens, Malme-3M, 48 h) was 5820 nM and the GI50 ([5]; Homo sapiens, HOP-62, 48 h) was 967 nM. It also gave a CC50 ([5]; Homo sapiens, HOP-62, 48 h) of 7800 nM, a GI50 ([6]; Homo sapiens, KM12, 48 h) of 275 nM and a CC50 ([6]; Homo sapiens, KM12, 48 h) of 2960 nM. The GI50 ([7]; Homo sapiens, NCI-H460, 48 h) was 405 nM, the LC50 ([7]; Homo sapiens, NCI-H460, 48 h) was 3920 nM and the GI50 [8] was 446 nM. The LC50 ([8]; Homo sapiens, ACHN, 48 h) was 4230 nM, the GI50 [9] was 175 nM and the CC50 ([9]; read-out: LC50 (the source's name)) was over 100000 nM. The GI50 ([10]; Homo sapiens, NCI-H226, 48 h) was 869 nM, the LC50 ([10]; Homo sapiens, NCI-H226, 48 h) was 5990 nM and the GI50 [11] was 66 nM. For the same compound, the LC50 ([11]; Homo sapiens, MDA-MB-468, 48 h) was 7250 nM, the GI50 ([12]; Homo sapiens, A498, 48 h) was 1070 nM and the CC50 ([12]; Homo sapiens, A498, 48 h) was 8940 nM. It also gave a GI50 ([13]; Homo sapiens, TK-10, 48 h) of 244 nM, an LC50 ([13]; Homo sapiens, TK-10, 48 h) of 2770 nM and a GI50 ([14]; Homo sapiens, A549, 48 h) of 639 nM. The LC50 (concentration killing 50% of cells) ([14]; Homo sapiens, A549, 48 h) was 10000 nM, the GI50 ([15]; Homo sapiens, OVCAR-5, 48 h) was 819 nM and the CC50 ([15]; Homo sapiens, OVCAR-5, 48 h) was 7890 nM. For the same compound, the GI50 ([16]; Homo sapiens, SK-MEL-28, 48 h) was 879 nM, the LC50 ([16]; Homo sapiens, SK-MEL-28, 48 h) was 5750 nM and the GI50 ([17]; Homo sapiens, Hs-578T, 48 h) was 335 nM. For the same compound, the CC50 ([17]; Homo sapiens, Hs-578T, 48 h) was 6310 nM, the GI50 ([18]; Homo sapiens, SF-268, 48 h) was 978 nM and the CC50 ([18]; Homo sapiens, SF-268, 48 h) was 5880 nM. For the same compound, the LC50 [19] was 5950 nM, the GI50 ([19]; Homo sapiens, NCI-H322M, 48 h) was 1300 nM and the GI50 [20] was 473 nM. The CC50 ([20]; Homo sapiens, SNB-75, 48 h) was 7400 nM, the GI50 ([21]; Homo sapiens, UO-31, 48 h) was 608 nM and the LC50 ([21]; Homo sapiens, UO-31, 48 h) was 5940 nM. For the same compound, the GI50 ([22]; Homo sapiens, OVCAR-8, 48 h) was 998 nM, the LC50 ([22]; Homo sapiens, OVCAR-8, 48 h) was 7400 nM and the GI50 ([23]; Homo sapiens, UACC-62, 48 h) was 848 nM. For the same compound, the LC50 ([23]; Homo sapiens, UACC-62, 48 h) was 5070 nM, the GI50 ([24]; Homo sapiens, EKVX, 48 h) was 649 nM and the CC50 ([24]; Homo sapiens, EKVX, 48 h) was 7780 nM. The GI50 ([25]; Homo sapiens, CCRF-CEM, 48 h) was 127 nM, the LC50 ([25]; Homo sapiens, CCRF-CEM, 48 h) was 720 nM and the GI50 ([26]; Homo sapiens, SNB-19, 48 h) was 1220 nM. For the same compound, the CC50 [26] was over 100000 nM, the GI50 ([27]; Homo sapiens, HL-60, 48 h) was 143 nM and the CC50 [27] was 791 nM. The GI50 ([28]; Homo sapiens, U-251, 48 h) was 372 nM, the CC50 ([28]; Homo sapiens, U-251, 48 h) was 3880 nM and the GI50 ([29]; Homo sapiens, HCT-116, 48 h) was 343 nM. The CC50 ([29]; Homo sapiens, HCT-116, 48 h, read-out: LC50 (the source's name)) was over 100000 nM, the GI50 ([30]; Homo sapiens, DU-145, 48 h) was 635 nM and the CC50 ([30]; Homo sapiens, DU-145, 48 h) was 4400 nM. It also gave a GI50 [31] of 364 nM and an LC50 ([31]; Homo sapiens, NCI-H522, 48 h) of 6450 nM.
Work on `CCCCCCCCCCCCCCCCCC[n+]1ccn(C)c1.F[P-](F)(F)(F)(F)F` yielded a GI50 [1] of 424 nM, a CC50 [1] of 7980 nM and a GI50 [2] of 286 nM. It also gave a CC50 [2] of 3540 nM, a GI50 [3] of 503 nM and a CC50 [3] of 6020 nM. For the same compound, the GI50 [4] was 1020 nM, the LC50 (concentration killing 50% of cells) [4] was 7690 nM and the GI50 [5] was 1450 nM. The CC50 [5] was 7770 nM, the GI50 [6] was 471 nM and the CC50 [6] was 4000 nM. It also gave a GI50 [7] of 636 nM, an LC50 [7] of 4380 nM and a GI50 [8] of 934 nM. For the same compound, the LC50 [8] was 4620 nM, the GI50 [10] was 1170 nM and the LC50 [10] was 5740 nM. It also gave a GI50 [11] of 159 nM, an LC50 [11] of 5110 nM and a GI50 [12] of 1150 nM. The CC50 [12] was 7550 nM, the GI50 [13] was 463 nM and the LC50 [13] was 4760 nM. It also gave an LC50 (concentration killing 50% of cells) [14] of 9370 nM, a GI50 [15] of 1080 nM and a CC50 [15] of 7240 nM. For the same compound, the LC50 [16] was 5160 nM, the GI50 [17] was 536 nM and the CC50 [17] was 6150 nM. For the same compound, the GI50 [18] was 1260 nM, the CC50 [18] was 6060 nM and the GI50 [19] was 1610 nM. It also gave an LC50 [19] of over 100000 nM, a GI50 [20] of 991 nM and a CC50 [20] of 6500 nM. The GI50 [21] was 657 nM, the LC50 [21] was 5350 nM and the GI50 [22] was 1300 nM. The LC50 [22] was 9800 nM, the GI50 [23] was 1180 nM and the LC50 [23] was 5200 nM. It also gave a GI50 [24] of 1120 nM, a CC50 [24] of 7640 nM and a GI50 [25] of 129 nM. For the same compound, the LC50 [25] was 980 nM, the GI50 [26] was 1450 nM and the CC50 [26] was 7890 nM. For the same compound, the GI50 [27] was 185 nM, the CC50 [27] was over 100000 nM and the GI50 [28] was 482 nM. The CC50 [28] was 4200 nM, the GI50 [29] was 411 nM and the GI50 [30] was 1020 nM. For the same compound, the CC50 [30] was 4680 nM, the GI50 [31] was 1160 nM and the LC50 [31] was 6770 nM.
